# Marks after values point to notes of the source that are not given here.
# Columns and labels:
# [1] = Plasma pharmacokinetics by LC-MS/MS; format: in vivo, human
# Procedure: (§1) Blood specimens for PK analysis were collected on Cycle 1 Day 1 (C1D1) prior to THU administration and then at 15, 30, and 45 min and 1, 2, 3, 4, 5, and 6 h after THU administration, as well as on C1D2 and C1D3 prior to and 2 h after THU administration. Urine specimens for PK analysis were collected on C1D1 prior to treatment and then at every void from 0 to 24 h after THU administration. All specimens for PK analysis were processed and analyzed by LC-MS/MS as described previously, and Phoenix WinNonlin software was used for data analysis.
# [2] = Urinary excretion by LC-MS/MS; format: in vivo, human
# Procedure: as §1
# [3] = DL2: FdCyd 60 mg + THU 3000 mg oral, FU n=3, geom. mean (geom. SD)
# [4] = DL3: FdCyd 90 mg + THU 3000 mg oral, FU n=3, geom. mean (geom. SD)
# [5] = DL4: FdCyd 120 mg + THU 3000 mg oral, FU n=2, geom. mean (geom. SD)
# [6] = DL5-9: FdCyd 160 mg + THU 3000 mg oral, FU n=29, geom. mean (geom. SD)
# [7] = DL10: FdCyd 60 mg + THU 6000 mg oral, FU n=8, geom. mean (geom. SD)
# [8] = DL11: FdCyd 80 mg + THU 6000 mg oral, FU n=3, geom. mean (geom. SD)
# [9] = All FdCyd doses + THU 3000 mg oral (n=44), geom. mean (geom. SD)
# [10] = All FdCyd doses + THU 6000 mg oral (n=11), geom. mean (geom. SD)
# [11] = DL1: FdCyd 30 mg + THU 3000 mg oral (n=3), geom. mean (geom. SD)
# [12] = DL1: FdCyd 30 mg + THU 3000 mg oral (n=3), no SD given
# [13] = DL2: FdCyd 60 mg + THU 3000 mg oral (n=4), geom. mean (geom. SD)
# [14] = DL3: FdCyd 90 mg + THU 3000 mg oral (n=3), geom. mean (geom. SD)
# [15] = DL4: FdCyd 120 mg + THU 3000 mg oral (n=3), geom. mean (geom. SD)
# [16] = DL5-9: FdCyd 160 mg + THU 3000 mg oral (n=31), geom. mean (geom. SD)
# [17] = DL10: FdCyd 60 mg + THU 6000 mg oral (n=8), geom. mean (geom. SD)
# [18] = DL11: FdCyd 80 mg + THU 6000 mg oral (n=3), geom. mean (geom. SD)
# [19] = Total, all dose levels (n=55), geom. mean (geom. SD)
smiles,measurement,setting,value
O=c1[nH]cc(F)c(=O)[nH]1 [FU],FU AUC0-inf,[1]; [3],0.019 (1.70) mg/L•h
same,FU Cmax,[1]; [3],0.0042 (1.2) mg/L
same,FU AUC0-inf,[1]; [4],0.026 (1.54) mg/L•h
same,FU Cmax,[1]; [4],0.0055 (1.1) mg/L
same,FU AUC0-inf,[1]; [5],0.032 (1.12) mg/L•h
same,FU Cmax,[1]; [5],0.0082 (1.4) mg/L
same,FU AUC0-inf,[1]; [6],0.052 (1.66) mg/L•h
same,FU Cmax,[1]; [6],0.015 (1.6) mg/L
same,FU AUC0-inf,[1]; [7],0.033 (1.30) mg/L•h
same,FU Cmax,[1]; [7],0.011 (1.3) mg/L
same,FU AUC0-inf,[1]; [8],0.044 (1.36) mg/L•h
same,FU Cmax,[1]; [8],0.010 (1.1) mg/L
same,FU urinary excretion over 0-24 hours of day 1,"[2]; All FdCyd doses + THU 3000 mg, N=27, geom. mean (geom. SD)",0.37 (2.0) % dose
same,FU urinary excretion over 0-24 hours of day 1,"[2]; All FdCyd doses + THU 6000 mg, N=9, geom. mean (geom. SD)",0.27 (2.5) % dose
same,FU urinary excretion over 0-24 hours of day 1,"[2]; DL1: FdCyd 30 mg + THU 3000 mg, N=1",0.20 (-) % dose
same,FU urinary excretion over 0-24 hours of day 1,"[2]; DL2: FdCyd 60 mg + THU 3000 mg, N=1",0.51 (-) % dose
same,FU urinary excretion over 0-24 hours of day 1,"[2]; DL4: FdCyd 120 mg + THU 3000 mg, N=1",0.34 (-) % dose
same,FU urinary excretion over 0-24 hours of day 1,"[2]; DL5-9: FdCyd 160 mg + THU 3000 mg, N=24, geom. mean (geom. SD)",0.38 (2.1) % dose
same,FU urinary excretion over 0-24 hours of day 1,"[2]; DL10: FdCyd 60 mg + THU 6000 mg, N=6, geom. mean (geom. SD)",0.32 (2.5) % dose
same,FU urinary excretion over 0-24 hours of day 1,"[2]; DL11: FdCyd 80 mg + THU 6000 mg, N=3, geom. mean (geom. SD)",0.21 (3.0) % dose
O=c1[nH]c(=O)n([C@H]2C[C@H](O)[C@@H](CO)O2)cc1F [FdUrd],FdUrd AUC/Dose,[1]; [9],0.55 (1.6)^d µg/L•h/mg
same,FdUrd Cmax/Dose,[1]; [9],0.19 (1.6)^c µg/L / mg
same,FdUrd t½,[1]; [9],1.3 (1.9) h
same,"FdUrd/FdCyd metabolic ratio, AUC0-inf",[1]; [9],0.068 (2.1)^f
same,"FdUrd/FdCyd metabolic ratio, Cmax",[1]; [9],0.048 (2.0)^e
same,FdUrd AUC/Dose,[1]; [10],0.80 (1.6)^d µg/L•h/mg
same,FdUrd Cmax/Dose,[1]; [10],0.34 (1.5)^c µg/L / mg
same,FdUrd t½,[1]; [10],1.2 (1.6) h
same,"FdUrd/FdCyd metabolic ratio, AUC0-inf",[1]; [10],0.067 (1.4)^f
same,"FdUrd/FdCyd metabolic ratio, Cmax",[1]; [10],0.051 (1.9)^e
same,FdUrd Cmax,[1]; [11],0.012 (1.4) mg/L
same,FdUrd Cmax/Dose,[1]; [11],0.41 (1.4) µg/L / mg
same,"FdUrd/FdCyd metabolic ratio, Cmax",[1]; [11],0.099 (1.6)
same,FdUrd AUC0-inf,[1]; [12],0.047 (-) mg/L•h
same,FdUrd AUC/Dose,[1]; [12],1.58 (-) µg/L•h/mg
same,FdUrd t½,[1]; [12],3.3 (-) h
same,"FdUrd/FdCyd metabolic ratio, AUC0-inf",[1]; [12],0.069 (-)
same,FdUrd AUC0-inf,[1]; [13],0.044 (1.72) mg/L•h
same,FdUrd AUC/Dose,[1]; [13],0.73 (1.7) µg/L•h/mg
same,FdUrd Cmax,[1]; [13],0.011 (1.7) mg/L
same,FdUrd Cmax/Dose,[1]; [13],0.19 (1.7) µg/L / mg
same,FdUrd t½,[1]; [13],1.8 (3.4) h
same,"FdUrd/FdCyd metabolic ratio, AUC0-inf",[1]; [13],0.070 (3.5)
same,"FdUrd/FdCyd metabolic ratio, Cmax",[1]; [13],0.039 (2.3)
same,FdUrd AUC0-inf,[1]; [14],0.043 (1.20) mg/L•h
same,FdUrd AUC/Dose,[1]; [14],0.48 (1.2) µg/L•h/mg
same,FdUrd Cmax,[1]; [14],0.015 (1.2) mg/L
same,FdUrd Cmax/Dose,[1]; [14],0.16 (1.2) µg/L / mg
same,FdUrd t½,[1]; [14],1.1 (1.3) h
same,"FdUrd/FdCyd metabolic ratio, AUC0-inf",[1]; [14],0.041 (1.7)
same,"FdUrd/FdCyd metabolic ratio, Cmax",[1]; [14],0.028 (1.7)
same,FdUrd AUC0-inf,[1]; [15],0.054 (1.97) mg/L•h
same,FdUrd AUC/Dose,[1]; [15],0.45 (2.0) µg/L•h/mg
same,FdUrd Cmax,[1]; [15],0.016 (1.6) mg/L
same,FdUrd Cmax/Dose,[1]; [15],0.14 (1.6) µg/L / mg
same,FdUrd t½,[1]; [15],1.7 (1.2) h
same,"FdUrd/FdCyd metabolic ratio, AUC0-inf",[1]; [15],0.034 (1.3)
same,"FdUrd/FdCyd metabolic ratio, Cmax",[1]; [15],0.018 (1.3)
same,FdUrd AUC0-inf,[1]; [16],0.084 (1.55) mg/L•h
same,FdUrd AUC/Dose,[1]; [16],0.53 (1.6) µg/L•h/mg
same,FdUrd Cmax,[1]; [16],0.031 (1.5) mg/L
same,FdUrd Cmax/Dose,[1]; [16],0.20 (1.5) µg/L / mg
same,FdUrd t½,[1]; [16],1.2 (1.7) h
same,"FdUrd/FdCyd metabolic ratio, AUC0-inf",[1]; [16],0.070 (1.8)
same,"FdUrd/FdCyd metabolic ratio, Cmax",[1]; [16],0.054 (1.9)
same,FdUrd AUC0-inf,[1]; [17],0.047 (1.59) mg/L•h
same,FdUrd AUC/Dose,[1]; [17],0.79 (1.6) µg/L•h/mg
same,FdUrd Cmax,[1]; [17],0.023 (1.4) mg/L
same,FdUrd Cmax/Dose,[1]; [17],0.38 (1.4) µg/L / mg
same,FdUrd t½,[1]; [17],1.0 (1.5) h
same,"FdUrd/FdCyd metabolic ratio, AUC0-inf",[1]; [17],0.072 (1.4)
same,"FdUrd/FdCyd metabolic ratio, Cmax",[1]; [17],0.060 (1.8)
same,FdUrd AUC0-inf,[1]; [18],0.068 (1.68) mg/L•h
same,FdUrd AUC/Dose,[1]; [18],0.85 (1.7) µg/L•h/mg
same,FdUrd Cmax,[1]; [18],0.019 (1.6) mg/L
same,FdUrd Cmax/Dose,[1]; [18],0.24 (1.6) µg/L / mg
same,FdUrd t½,[1]; [18],1.7 (1.5) h
same,"FdUrd/FdCyd metabolic ratio, AUC0-inf",[1]; [18],0.056 (1.2)
same,"FdUrd/FdCyd metabolic ratio, Cmax",[1]; [18],0.033 (1.8)
same,FdUrd Cmax/Dose,[1]; [19],0.22 (1.6) µg/L / mg
same,FdUrd t½,[1]; [19],1.3 (1.8) h
same,FdUrd urinary excretion over 0-24 hours of day 1,"[2]; All FdCyd doses + THU 3000 mg, N=5, geom. mean (geom. SD)",0.053 (1.3) % dose
same,FdUrd urinary excretion over 0-24 hours of day 1,"[2]; All FdCyd doses + THU 6000 mg, N=3, geom. mean (geom. SD)",0.10 (2.6) % dose
same,FdUrd urinary excretion over 0-24 hours of day 1,"[2]; DL4: FdCyd 120 mg + THU 3000 mg, N=2, geom. mean (geom. SD)",0.064 (1.0) % dose
same,FdUrd urinary excretion over 0-24 hours of day 1,"[2]; DL5-9: FdCyd 160 mg + THU 3000 mg, N=3, geom. mean (geom. SD)",0.047 (1.3) % dose
same,FdUrd urinary excretion over 0-24 hours of day 1,"[2]; DL10: FdCyd 60 mg + THU 6000 mg, N=2, geom. mean (geom. SD)",0.14 (2.6) % dose
same,FdUrd urinary excretion over 0-24 hours of day 1,"[2]; DL11: FdCyd 80 mg + THU 6000 mg, N=1",0.045 (-) % dose
